According to publication PMC9150102 (Journal of Medicinal Chemistry, 2022):
Where two headings read alike, the source gives them in different places.

Assays:
SERCA2a = target: T1, SERCA2a (Cavia porcellus, UniProt A0A286XFU8); assay: SERCA2a ATPase activity, Ca2+ dependency in cardiac SR microsomes from healthy guinea pigs; type: biochemical, guinea pig; details: for SERCA2a–Ca2+ affinity (KdCa) modulation (words): 10 and 100 nM, healthy guinea pig SR preparations
T1 construct: from tissue; host or cells: guinea pig left ventricle, SR-enriched microsomes
T1 sequence (A0A286XFU8 entry or part of it): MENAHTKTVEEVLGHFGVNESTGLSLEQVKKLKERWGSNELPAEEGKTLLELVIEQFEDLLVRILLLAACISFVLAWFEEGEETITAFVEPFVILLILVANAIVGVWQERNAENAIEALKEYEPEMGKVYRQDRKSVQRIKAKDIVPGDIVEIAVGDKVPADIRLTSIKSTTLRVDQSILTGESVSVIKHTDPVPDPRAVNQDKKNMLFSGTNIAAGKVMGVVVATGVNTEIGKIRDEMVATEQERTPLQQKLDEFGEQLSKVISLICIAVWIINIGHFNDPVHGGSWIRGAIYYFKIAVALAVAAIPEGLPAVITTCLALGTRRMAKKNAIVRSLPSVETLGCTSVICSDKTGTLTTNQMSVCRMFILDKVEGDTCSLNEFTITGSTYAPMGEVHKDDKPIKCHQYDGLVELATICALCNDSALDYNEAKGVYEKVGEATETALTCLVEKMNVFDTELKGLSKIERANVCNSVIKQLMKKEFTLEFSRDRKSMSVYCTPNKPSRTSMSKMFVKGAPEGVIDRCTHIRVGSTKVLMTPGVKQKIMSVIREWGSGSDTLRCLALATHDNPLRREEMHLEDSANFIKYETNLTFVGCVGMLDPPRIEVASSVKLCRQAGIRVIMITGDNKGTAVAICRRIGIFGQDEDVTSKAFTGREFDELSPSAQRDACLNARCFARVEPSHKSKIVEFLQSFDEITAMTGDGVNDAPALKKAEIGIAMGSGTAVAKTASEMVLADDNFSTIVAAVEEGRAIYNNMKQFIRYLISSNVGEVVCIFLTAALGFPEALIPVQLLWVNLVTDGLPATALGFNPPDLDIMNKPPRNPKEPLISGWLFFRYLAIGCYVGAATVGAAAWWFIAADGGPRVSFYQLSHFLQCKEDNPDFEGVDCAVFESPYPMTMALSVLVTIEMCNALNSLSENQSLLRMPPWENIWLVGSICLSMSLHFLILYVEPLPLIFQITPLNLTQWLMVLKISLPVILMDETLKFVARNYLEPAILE
Experimental: SERCA2a ATPase activity was assessed in SR preparations from healthy guinea pig hearts. Ca^2+ dependency of ATPase activity was measured, and kinetic parameters (KdCa and Vmax) were estimated at compound concentrations of 10 and 100 nM.
[…] […] Data are the mean ± SEM. *p < 0.05 (one-way RM ANOVA plus post hoc Tukey’s multiple comparisons or paired t-test).
Measurements were performed in cardiac SR microsomes (guinea pig) and in whole tissue homogenates (rat). Cardiac preparations included SERCA2a and PLN. To test for PLN involvement in the effect of compounds, SERCA1 activity was measured in PLN-free microsomes (from guinea pig skeletal muscle) before and after reconstitution with the synthetic PLN1–32 inhibitory fragment at a ratio of 300:1 for PLN/SERCA. […] Either an increase in Vmax (rat) or a decrease in KdCa (increased Ca^2+ affinity) (guinea pig) stands for enhancement of SERCA function. […]
Left ventricles (LV) were dissected from rat and guinea -pig of healthy and failing preparations and frozen until use. Tissues were homogenized, subjected to centrifugation to obtain SR -enriched microsomes and sarcomeric proteins were extracted, as previously described 4.
(§1) In the case of guinea-pig hearts, LV tissues were homogenized in 4 volumes of 10 mM NaHCO3, 1 mM PMSF, 10 μg/ml aprotinin and leupeptin (pH 7) and centrifuged at 12,000g for 15 minutes. Supernatants were filtered and centrifuged at 100,000 g for 30 min. Contractile proteins were extracted by suspending the pellets with 0.6 M KCl, 30 mM histidine, pH 7 and further centrifugation at 100,000 g for 30 min.
(§2) Final pellets were reconstituted with 0.3 M sucrose, 30 mM histidine, pH 7, to obtain SR-enriched […]
SERCA2a ATPase activity was measured as the rate of 32P-ATP release at multiple Ca2+ concentrations (100-2000 nM) in the absence and presence of tested compounds, as previously described5. Increasing concentrations of each compound were pre-incubated with 2 μg of cardiac preparations for 5 min at 4° C in 80 μl of a solution containing 100 mM KCl, 5 mM MgCl2, 1 μM A23187, 20 mM Tris, pH 7.5. Then, 20 μl of 5 mM Tris-ATP containing 50 nCi of 32P-ATP (3-10 Ci/mmol, Perkin Elmer) were added. The ATP hydrolysis was continued for 15 min at 37°C and the reaction was stopped by acidification with 100 μl of 20% ice-cold perchloric acid. 32P was separated by centrifugation with activated charcoal (Norit A, Serva) and the radioactivity was measured. SERCA2a-dependent ATPase activity was identified as the portion of total hydrolytic activity inhibited by cyclopiazonic acid (CPA, 10 µM). Technical replicates were used to ensure the reliability of single values. […]

[1] = tested on: SERCA1 reconstituted with PLN1–32 fragment; assay: SERCA1 ATPase activity after reconstitution with PLN1-32 fragment; type: biochemical, guinea pig; details: PLN/SERCA 300:1
Experimental: Data are the mean ± SEM. *p < 0.05 (one-way RM ANOVA plus post hoc Tukey’s multiple comparisons or paired t-test).
Measurements were performed in cardiac SR microsomes (guinea pig) and in whole tissue homogenates (rat). Cardiac preparations included SERCA2a and PLN. To test for PLN involvement in the effect of compounds, SERCA1 activity was measured in PLN-free microsomes (from guinea pig skeletal muscle) before and after reconstitution with the synthetic PLN1–32 inhibitory fragment at a ratio of 300:1 for PLN/SERCA. […] Either an increase in Vmax (rat) or a decrease in KdCa (increased Ca^2+ affinity) (guinea pig) stands for enhancement of SERCA function.
(rats). As verified by Western blot, cardiac microsomes preparations included SERCA2a and PLN and skeletal muscle ones included SERCA1 only.
SERCA stimulation4, compounds were also tested on SERCA1 in microsomes of guinea-pig skeletal muscle (PLN-free) before and after reconstitution with the PLN1-32 inhibitory fragment at a ratio of 300:1 […]
Tissues were homogenized, subjected to centrifugation to obtain SR -enriched microsomes and sarcomeric proteins were extracted, as previously described 4.
as §1, §2
SERCA2a ATPase activity was measured as the rate of 32P-ATP release at multiple Ca2+ concentrations (100-2000 nM) in the absence and presence of tested compounds, as previously described5. Increasing concentrations of each compound were pre-incubated with 2 μg of cardiac preparations for 5 min at 4° C in 80 μl of a solution containing 100 mM KCl, 5 mM MgCl2, 1 μM A23187, 20 mM Tris, pH 7.5. Then, 20 μl of 5 mM Tris-ATP containing 50 nCi of 32P-ATP (3-10 Ci/mmol, Perkin Elmer) were added. The ATP hydrolysis was continued for 15 min at 37°C and the reaction was stopped by acidification with 100 μl of 20% ice-cold perchloric acid. 32P was separated by centrifugation with activated charcoal (Norit A, Serva) and the radioactivity was measured. SERCA2a-dependent ATPase activity was identified as the portion of total hydrolytic activity inhibited by cyclopiazonic acid (CPA, 10 µM). Technical replicates were used to ensure the reliability of single values.
Reconstitution of SERCA1 with PLN1-32 synthetic fragment
Adult healthy male guinea-pigs were used to prepare SERCA1-enriched SR microsomes from fast-twitch hind leg muscles. Microsomes were prepared as described for SERCA2a preparations. For reconstitution experiments, SERCA1 (PLN-free) was pre-incubated with synthetic PLN1-32 fragment (canine sequence, Biomatik Corporation, Canada) in 20 mM imidazole, pH 7, at 1:300 SERCA1:PLN ratio for 30 min at room temperature. After pre-incubation, SERCA1 (PLN-free) alone, or reconstituted with PLN1-32 […]
fragment, was utilized for SERCA activity measurement by using 32P-ATP hydrolysis method at different

[2] = target: T2, Na^+/K^+ ATPase-alpha1 isoform purified from dog kidneys (Canis lupus familiaris, UniProt P50997); assay: Na+/K+ ATPase activity inhibition, purified dog kidney enzyme (32P-ATP hydrolysis); type: biochemical
T2 construct: excised from 1–3-year-old male beagle dogs; from tissue; host or cells: dog (beagle) kidney outer medulla, Jørgensen purification
Experimental: Compounds were tested in a concentration range from 10^–9 to 10^–4 M on a purified renal Na^+/K^+ ATPase preparation with a specific activity of 14 μmol/min/mg protein.
Figure 2 Na^+/K^+ ATPase activity inhibition in a dog purified enzyme preparation. All compounds were tested in a concentration range from 10^–9 to 10^–4 M in comparison to ouabain.
The inhibitory effect of compounds was tested at multiple concentrations on Na^+/K^+ ATPase-alpha1 isoform purified from dog kidneys. […]
Renal Na+/K+ ATPase purification and activity
Purification of renal Na+/K+ ATPase was performed according to the method of Jørgensen2. Kidneys were excised from 1–3-year-old male beagle dogs, obtained from the General Pharmacology Department of Sigma-tau, Pomezia, Italy, under pentobarbital anesthesia. Kidneys were sliced and the outer medulla was dissected, pooled and suspended (1g in 10 ml) in a sucrose-histidine solution, containing 250 mM sucrose, 30 mM histidine and 5 mM EDTA, pH 7.2 and homogenized. The homogenate was centrifuged at 6,000 g for 15 min, the supernatant was decanted and centrifuged at 48,000 g for 30 min. The pellet was suspended in the sucrose-histidine buffer and incubated for 20 min with a sodium-dodecyl-sulphate (SDS) solution, dissolved in a gradient buffer, containing 25 mM imidazole and 1 mM EDTA, pH 7.5. The sample was layered on the top of a sucrose discontinuous gradient (10, 15 and 29.4%) and centrifuged at 60,000 g for 115 min. The final pellet was suspended in the gradient buffer.
Na+/K+ ATPase activity was assayed by measuring 32P-ATP hydrolysis, as previously described3.
Increasing concentrations of the standard ouabain, or tested compound, were incubated with 0.3 μg of purified dog kidney enzyme for 10 min at 37°C in 120 μl final volume of a medium, containing 140 mM NaCl, 3 mM MgCl2, 50 mM Hepes-Tris, 3 mM ATP, pH 7.5. Then, 10 μl of incubation solution containing 10 mM KCl and 20 nCi of 32P-ATP (3-10 Ci/mmol, Perkin Elmer) were added, the reaction continued for 15 min at 37°C and was stopped by acidification with 20% ice-cold perchloric acid.
32P was separated by centrifugation with activated Charcoal (Norit A, Serva) and the radioactivity was measured. Effects of increasing concentrations of the tested compound were compared to ouabain, as positive standard, and to vehicle (control) at 37°C. The inhibitory activity was expressed as percent of activity in control. The concentration of compound causing 50% inhibition of the Na+/K+ ATPase activity (IC50) was calculated by non-linear fitting of data points (KaleidagraphTM, Sinergy Software). […]

[3] = target: T2, Na^+/K^+ ATPase-alpha1 isoform purified from dog kidneys; design: method as in PMID 36153005; details: cited from earlier work
STZ diabetic rats = tested on: STZ diabetic rats; design: method as in PMID 36153005; details: cited from earlier work
[4] = cited from earlier work
[5] = Acute toxicity (LD50) in mice; details: male, Albino Swiss CD-1, mouse, in vivo, po
Experimental: Acute toxicity (LD50) was preliminarily evaluated in mice following i.v. and oral drug administration.
Control animals received the vehicle only.
Drug toxicity studies in mice
Acute toxicity was determined in CD1 mice. Separate mice groups were either orally treated, or
intravenously injected, with increasing doses of the tested substance to identify the dose causing 50%
mortality (LD50). Acute mortality was assessed at 30 min after compound administration; survival was

[6] = target: skeletal SERCA1 (sarcoplasmic reticulum calcium ATPase 1) (guinea pig (endogenous in skeletal muscle))
Albino Swiss CD-1 mice = tested on: Albino Swiss CD-1 mice; design: method as in PMID 36153005; details: i.v. administration; cited from earlier work
[7] = read-out: NKA Inhibition (IC50 µM)

## C[C@]12CC[C@H](CC(=O)O)C[C@@H]1[C@H](O)C[C@@H]1[C@@H]2CC[C@]2(C)C(=O)CC[C@@H]12 [Compound 9]
SERCA2a
  SERCA2a–Ca2+ affinity (KdCa) modulation (words): inactive

## PLN1–32 fragment: synthetic PLN1-32 inhibitory fragment of phospholamban (canine sequence, Biomatik) (MEKVQYLTRSAIRRASTIEMPQQARQKLQNLF) [reference compound]
[1]
  SERCA1 KdCa increased by (reconstitution with PLN1–32): 23–25%

## C[C@]12CC[C@H](CCCCCC(=O)O)C[C@@H]1[C@@H](O)C[C@@H]1[C@@H]2CC[C@]2(C)C(=O)CC[C@@H]12 [Compound 11]
[2]; [7]
  IC50: > 100 µM
SERCA2a; 100 nM
  SERCA2a Stimulation @100 nM (DELTA% KdCa): -20%
SERCA2a
  SERCA2a–Ca2+ affinity (KdCa) modulation (words): slightly less active

## C[C@]12CC[C@H](CCCC(=O)O)C[C@@H]1[C@H](O)C[C@@H]1[C@@H]2CC[C@]2(C)C(=O)CC[C@@H]12 [Compound 6]
[2]
  IC50: > 100 µM
SERCA2a; 100 nM
  SERCA2a Stimulation @100 nM (DELTA% KdCa): -23%

## C[C@]12CC/C(=N\OCC(=O)O)C[C@@H]1[C@H](O)C[C@@H]1[C@@H]2CC[C@]2(C)C(=O)CC[C@@H]12 [PST3093, reference compound]
SERCA2a; 1 nM
  SERCA2a KdCa reduced by: 18%
SERCA2a; 100 nM, guinea pig microsomal preparations
  SERCA2a KdCa change: −25%
SERCA2a; 100 nM, guinea pig preparation
  SERCA2a KdCa reduced by: 25%
[3]
  activity against Na+/K+ ATPase: inactive
STZ diabetic rats
  systolic indexes: improved systolic indexes
[4]
  half-life: ~10 h
[5]
  LD50 at 24 h: > 200 mg/kg

## C[C@]12CC/C(=C\CCC(=O)O)C[C@@H]1[C@@H](O)C[C@@H]1[C@@H]2CC[C@]2(C)C(=O)CC[C@@H]12 [Compound 1]
[2]
  IC50: > 100 µM
SERCA2a; 100 nM
  SERCA2a Stimulation @100 nM (DELTA% KdCa): -15%
SERCA2a; 100 nM, guinea pig preparation
  SERCA2a KdCa reduced by: 15%

## CCOC(=O)CCCCC[C@H]1CC[C@@]2(C)[C@H](C1)[C@@H](O)C[C@@H]1[C@@H]2CC[C@]2(C)C(=O)CC[C@@H]12 [Compound 12]
[2]; [7]
  IC50: > 100 µM
SERCA2a
  SERCA2a–Ca2+ affinity (KdCa) modulation (words): slightly less active

## C[C@]12CC/C(=C/CCC(=O)O)C[C@@H]1[C@H](O)C[C@@H]1[C@@H]2CC[C@]2(C)C(=O)CC[C@@H]12 [Compound 4]
[2]
  IC50: > 100 µM
SERCA2a
  SERCA2a–Ca2+ affinity (KdCa) modulation (words): inactive

## C[C@]12CC/C(=C\CCC(=O)O)C[C@@H]1[C@H](O)C[C@@H]1[C@@H]2CC[C@]2(C)C(=O)CC[C@@H]12 [Compound 3]
SERCA2a
  SERCA2a–Ca2+ affinity (KdCa) modulation (words): inactive
SERCA2a; listed as compound 3
  SERCA2a–Ca2+ affinity (KdCa) modulation (words): only a trend to SERCA2a KdCa reduction

## CCOC(=O)C[C@H]1CC[C@@]2(C)[C@H](C1)[C@@H](O)C[C@@H]1[C@@H]2CC[C@]2(C)C(=O)CC[C@@H]12 [Compound 10]
[2]
  IC50: > 100 µM
SERCA2a; 100 nM
  SERCA2a Stimulation @100 nM (DELTA% KdCa): -26%

## synthetic PLN(1-32) inhibitory fragment of phospholamban (from UniProt P26678 1-32) (peptide)
[6]
  increase of KdCa (Ca2+ dependency of SERCA1 ATPase activity, 32P-ATP, 37 °C) after reconstitution of skeletal muscle microsomes with PLN(1-32) at 300:1 PLN/SERCA; Vmax not affected: 23 to 25%

## C[C@]12CC/C(=C/CCC(=O)O)C[C@@H]1[C@@H](O)C[C@@H]1[C@@H]2CC[C@]2(C)C(=O)CC[C@@H]12 [Compound 2]
[2]
  IC50: > 100 µM
SERCA2a
  SERCA2a–Ca2+ affinity (KdCa) modulation (words): inactive

## CCOC(=O)CCC[C@H]1CC[C@@]2(C)[C@H](C1)[C@@H](O)C[C@@H]1[C@@H]2CC[C@]2(C)C(=O)CC[C@@H]12 [Compound 7]
[2]; [7]
  IC50: > 100 µM
SERCA2a; 100 nM
  SERCA2a Stimulation @100 nM (DELTA% KdCa): -23%

## C[C@]12CCC(=NOCCN)C[C@@H]1C(=O)C[C@@H]1[C@@H]2CC[C@]2(C)C(=O)CC[C@@H]12 (mixture of isomers) [istaroxime]
[3]; dog renal preparations
  IC50: 0.14 µM
Albino Swiss CD-1 mice
  LD50: 23 mg/kg
[4]
  half-life: ~1 h
[5]
  LD50 at 24 h: 200 mg/kg
